# According to ChEMBL document CHEMBL1130625, “Synthesis and antibacterial activity of novel 7-(3-substituted-3 or 4-trifluoromethyl-1-pyrrolidinyl)-8-methoxyfluoroquinolones” (1998):
# Experiments:
# Escherichia coli [1] = test: Compound was tested for antibacterial activity against gram negative Escherichia coli CSH2/RE45; type: functional
# Streptococcus pyogenes = test: Compound was tested for antibacterial activity against gram positive Streptococcus pyogenes cook
# Pseudomonas aeruginosa [2] = test: Compound was tested for antibacterial activity against gram negative Pseudomonas aeruginosa KP-254; type: functional
# [3] = test system: Acinetobacter calcoaceticus; test: Compound was tested for antibacterial activity against gram negative Acinetobacter calcoaceticus No.4; type: functional
# Staphylococcus aureus [4] = test: Compound was tested for antibacterial activity against gram positive Staphylococcus aureus FDA 209P JC-1; type: functional
# Staphylococcus aureus [5] = test: Compound was tested for antibacterial activity against gram positive Staphylococcus aureus KP-90-3; type: functional
# Pseudomonas aeruginosa [6] = test: Compound was tested for antibacterial activity against gram negative Pseudomonas aeruginosa AK109; type: functional
# Citrobacter freundii [7] = test: Compound was tested for antibacterial activity against gram negative Citrobacter freundii No.7; type: functional
# Enterobacter cloacae = test: Compound was tested for antibacterial activity against gram negative Enterobacter cloacae Nek39; type: functional
# Burkholderia cepacia = test: Compound was tested for antibacterial activity against gram negative Burkholderia cepacia 23; type: functional
# Proteus mirabilis = test: Compound was tested for antibacterial activity against gram negative Proteus mirabilis JY-10; type: functional
# Proteus vulgaris [8] = test: Compound was tested for antibacterial activity against gram negative Proteus vulgaris No.33; type: functional
# Enterococcus faecalis = test: Compound was tested for antibacterial activity against gram positive Enterococcus faecalis 1373; type: functional
# Escherichia coli [9] = test: Compound was tested for antibacterial activity against gram negative Escherichia coli ML4707; type: functional
# Klebsiella pneumoniae [10] = test: Compound was tested for antibacterial activity against gram negative Klebsiella pneumoniae No.42; type: functional
# Proteus vulgaris [11] = test: Compound was tested for antibacterial activity against gram negative Proteus vulgaris KS-134; type: functional
# Staphylococcus aureus [12] = test: Compound was tested for antibacterial activity against gram positive Staphylococcus aureus JS-1; type: functional
# Citrobacter freundii [13] = test: Compound was tested for antibacterial activity against gram negative Citrobacter freundii KP-29; type: functional
# Klebsiella oxytoca = test: Compound was tested for antibacterial activity against gram negative Klebsiella oxytoca GN 10650; type: functional
# Serratia marcescens = test: Compound was tested for antibacterial activity against gram negative Serratia marcescens No.16-2; type: functional
# Klebsiella pneumoniae [14] = test: Compound was tested for antibacterial activity against gram negative Klebsiella pneumoniae KC-1; type: functional
# Escherichia coli [15] = test: Compound was tested for antibacterial activity against gram negative Escherichia coli CSH2/RK1; type: functional
# Pseudomonas aeruginosa [16] = test: Compound was tested for antibacterial activity against gram negative Pseudomonas aeruginosa PAO1; type: functional
# Pseudomonas aeruginosa [17] = test: Compound was tested for antibacterial activity against gram negative Pseudomonas aeruginosa K-13; type: functional
# Escherichia coli [18] = test: Compound was tested for antibacterial activity against gram negative Escherichia coli NIHJ JC-2; type: functional
# Staphylococcus aureus [19] = test: Compound was tested for antibacterial activity against gram positive Staphylococcus aureus smith; type: functional
# [20] = Escherichia coli, read-out: MIC
# [21] = Streptococcus pyogenes, read-out: MIC
# [22] = Pseudomonas aeruginosa, read-out: MIC
# [23] = Acinetobacter calcoaceticus, read-out: MIC
# [24] = Staphylococcus aureus, read-out: MIC
# [25] = Citrobacter freundii, read-out: MIC
# [26] = Enterobacter cloacae, read-out: MIC
# [27] = Burkholderia cepacia, read-out: MIC
# [28] = Proteus mirabilis, read-out: MIC
# [29] = Proteus vulgaris, read-out: MIC
# [30] = Enterococcus faecalis, read-out: MIC
# [31] = Klebsiella pneumoniae, read-out: MIC
# [32] = Klebsiella oxytoca, read-out: MIC
# [33] = Serratia marcescens, read-out: MIC
smiles,measurement,setting,value
COc1c(N2C[C@@H](CN)[C@H](C(F)(F)F)C2)c(F)cc2c(=O)c(C(=O)O)cn(C3CC3)c12.Cl,MIC,Escherichia coli [1],0.39 µg/mL
same,MIC,Streptococcus pyogenes,0.013 µg/mL
same,MIC,Pseudomonas aeruginosa [2],100 µg/mL
same,MIC,[3],0.1 µg/mL
same,MIC,Staphylococcus aureus [4],0.025 µg/mL
same,MIC,Staphylococcus aureus [5],0.39 µg/mL
same,MIC,Pseudomonas aeruginosa [6],1.56 µg/mL
same,MIC,Citrobacter freundii [7],0.78 µg/mL
same,MIC,Enterobacter cloacae,0.39 µg/mL
same,MIC,Burkholderia cepacia,1.56 µg/mL
same,MIC,Proteus mirabilis,0.05 µg/mL
same,MIC,Proteus vulgaris [8],0.05 µg/mL
same,MIC,Enterococcus faecalis,0.025 µg/mL
same,MIC,Escherichia coli [9],0.025 µg/mL
same,MIC,Klebsiella pneumoniae [10],0.1 µg/mL
same,MIC,Proteus vulgaris [11],50 µg/mL
same,MIC,Staphylococcus aureus [12],<0.006 µg/mL
same,MIC,Citrobacter freundii [13],12.5 µg/mL
same,MIC,Klebsiella oxytoca,0.1 µg/mL
same,MIC,Serratia marcescens,0.39 µg/mL
same,MIC,Klebsiella pneumoniae [14],0.05 µg/mL
same,MIC,Escherichia coli [15],0.39 µg/mL
same,MIC,Pseudomonas aeruginosa [16],1.56 µg/mL
same,MIC,Pseudomonas aeruginosa [17],12.5 µg/mL
same,MIC,Escherichia coli [18],0.025 µg/mL
COc1c(N2CC[C@@](CN)(C(F)(F)F)C2)c(F)cc2c(=O)c(C(=O)O)cn(C3CC3)c12.Cl,MIC,Escherichia coli [1]; [20],> 12.5 µg/mL
same,MIC,Streptococcus pyogenes; [21],0.78 µg/mL
same,MIC,Pseudomonas aeruginosa [2]; [22],> 12.5 µg/mL
same,MIC,[3]; [23],1.56 µg/mL
same,MIC,Staphylococcus aureus [4]; [24],0.2 µg/mL
same,MIC,Staphylococcus aureus [5]; [24],6.25 µg/mL
same,MIC,Pseudomonas aeruginosa [6]; [22],> 12.5 µg/mL
same,MIC,Citrobacter freundii [7]; [25],> 12.5 µg/mL
same,MIC,Enterobacter cloacae; [26],12.5 µg/mL
same,MIC,Burkholderia cepacia; [27],3.13 µg/mL
same,MIC,Staphylococcus aureus [19],0.05 µg/mL
same,MIC,Proteus mirabilis; [28],0.78 µg/mL
same,MIC,Proteus vulgaris [8]; [29],3.13 µg/mL
same,MIC,Enterococcus faecalis; [30],0.78 µg/mL
same,MIC,Escherichia coli [9]; [20],0.05 µg/mL
same,MIC,Klebsiella pneumoniae [10]; [31],6.25 µg/mL
same,MIC,Proteus vulgaris [11]; [29],> 12.5 µg/mL
same,MIC,Staphylococcus aureus [12]; [24],0.1 µg/mL
same,MIC,Citrobacter freundii [13]; [25],> 12.5 µg/mL
same,MIC,Klebsiella oxytoca; [32],6.25 µg/mL
same,MIC,Serratia marcescens; [33],> 12.5 µg/mL
same,MIC,Klebsiella pneumoniae [14]; [31],1.56 µg/mL
same,MIC,Escherichia coli [15]; [20],> 12.5 µg/mL
same,MIC,Pseudomonas aeruginosa [16]; [22],> 12.5 µg/mL
same,MIC,Pseudomonas aeruginosa [17]; [22],> 12.5 µg/mL
same,MIC,Escherichia coli [18]; [20],3.13 µg/mL
COc1c(N2C[C@H](CO)[C@H](C(F)(F)F)C2)c(F)cc2c(=O)c(C(=O)O)cn(C3CC3)c12,MIC,Escherichia coli [1]; [20],3.13 µg/mL
same,MIC,Streptococcus pyogenes; [21],0.05 µg/mL
same,MIC,Pseudomonas aeruginosa [2]; [22],> 100 µg/mL
same,MIC,[3]; [23],0.2 µg/mL
same,MIC,Staphylococcus aureus [4]; [24],0.013 µg/mL
same,MIC,Staphylococcus aureus [5]; [24],0.39 µg/mL
same,MIC,Pseudomonas aeruginosa [6]; [22],3.13 µg/mL
same,MIC,Citrobacter freundii [7]; [25],6.25 µg/mL
same,MIC,Enterobacter cloacae; [26],1.56 µg/mL
same,MIC,Burkholderia cepacia; [27],1.56 µg/mL
same,MIC,Staphylococcus aureus [19],≤ 0.006 µg/mL
same,MIC,Proteus mirabilis; [28],0.1 µg/mL
same,MIC,Proteus vulgaris [8]; [29],0.39 µg/mL
same,MIC,Enterococcus faecalis; [30],0.1 µg/mL
same,MIC,Escherichia coli [9]; [20],0.2 µg/mL
same,MIC,Klebsiella pneumoniae [10]; [31],0.78 µg/mL
same,MIC,Proteus vulgaris [11]; [29],100 µg/mL
same,MIC,Staphylococcus aureus [12]; [24],≤ 0.006 µg/mL
same,MIC,Citrobacter freundii [13]; [25],> 100 µg/mL
same,MIC,Klebsiella oxytoca; [32],0.78 µg/mL
same,MIC,Serratia marcescens; [33],3.13 µg/mL
same,MIC,Klebsiella pneumoniae [14]; [31],0.39 µg/mL
same,MIC,Escherichia coli [15]; [20],3.13 µg/mL
same,MIC,Pseudomonas aeruginosa [16]; [22],3.13 µg/mL
same,MIC,Pseudomonas aeruginosa [17]; [22],25 µg/mL
same,MIC,Escherichia coli [18]; [20],0.39 µg/mL
COc1c(N2C[C@H](CN)[C@@H](C(F)(F)F)C2)c(F)cc2c(=O)c(C(=O)O)cn(C3CC3)c12.Cl,MIC,Escherichia coli [1]; [20],1.56 µg/mL
same,MIC,Streptococcus pyogenes; [21],0.025 µg/mL
same,MIC,Pseudomonas aeruginosa [2]; [22],> 100 µg/mL
same,MIC,[3]; [23],0.2 µg/mL
same,MIC,Staphylococcus aureus [4]; [24],0.05 µg/mL
same,MIC,Staphylococcus aureus [5]; [24],0.78 µg/mL
same,MIC,Pseudomonas aeruginosa [6]; [22],6.25 µg/mL
same,MIC,Citrobacter freundii [7]; [25],1.56 µg/mL
same,MIC,Enterobacter cloacae; [26],1.56 µg/mL
same,MIC,Burkholderia cepacia; [27],1.56 µg/mL
same,MIC,Staphylococcus aureus [19],≤ 0.006 µg/mL
same,MIC,Proteus mirabilis; [28],0.2 µg/mL
same,MIC,Proteus vulgaris [8]; [29],0.39 µg/mL
same,MIC,Enterococcus faecalis; [30],0.05 µg/mL
same,MIC,Escherichia coli [9]; [20],0.05 µg/mL
same,MIC,Klebsiella pneumoniae [10]; [31],0.39 µg/mL
same,MIC,Proteus vulgaris [11]; [29],50 µg/mL
same,MIC,Staphylococcus aureus [12]; [24],0.013 µg/mL
same,MIC,Citrobacter freundii [13]; [25],50 µg/mL
same,MIC,Klebsiella oxytoca; [32],0.2 µg/mL
same,MIC,Serratia marcescens; [33],0.78 µg/mL
same,MIC,Klebsiella pneumoniae [14]; [31],0.1 µg/mL
same,MIC,Escherichia coli [15]; [20],3.13 µg/mL
same,MIC,Pseudomonas aeruginosa [16]; [22],6.25 µg/mL
same,MIC,Pseudomonas aeruginosa [17]; [22],50 µg/mL
same,MIC,Escherichia coli [18]; [20],0.2 µg/mL
